Measured values from patent publication EP4417607A1, “HETEROCYCLIC COMPOUND AS SOS1 INHIBITOR AND USES THEREOF” (Nanjing Zaiming Pharmaceutical Co., Ltd., priority 2021, dated 2023).

Key:
[1] = Caco-2 membrane permeability and transport; format: in vitro ADME; details: human, pH 7.4; for Papp A→B at 2 h, 10 µM: Caco-2, apical to basal; for Papp B→A at 2 h, 10 µM: Caco-2, basal to apical
Description: The membrane permeability and transport properties of the compound of the present disclosure were determined using the following method. • I. Experimental materials and instruments • 1. Caco-2 cells (ATCC) • 2. HEPES (Solarbio 804D049), penicillin/streptomycin (Solarbio 20200109), Trypsin/EDTA (Solarbio), and PBS (Solarbio 20200620) • 3. Fetal Bovine Serum (FBS) (Sigma WXBD0055V), lucifer yellow (Sigma MKCJ3738), and NaHCO3 (Sigma SLBZ4647) • 4. Hank's balanced salt solution (Gibco 2085528), non-essential amino acid (NEAA) (Gibco 2211548), and Trypsin/EDTA (Gibco 2120732) • 5. High glucose DMEM (Corning 20319014) • 6. HTS Transwell-96 Well Permeable (Corning, 3391) • 7. Resistance detector (Millipore, Millicell® ERS-2) • 8. Cellometer® Vision (Nexcelom Bioscience) • 9. Infinite 200 PRO microplate reader (Tecan, Infinite M200PRO) • 10. Positive control compound metoprolol (Sinopharm 100084-201403), erythromycin (MCE 84550), and cimetidine (Sinopharm 100158-201406) • 11. ABI QTrap 5500 liquid chromatography-mass spectrometry system • II. Procedures • 1. Caco-2 cell culture • 1) Preparation of transport buffer (HBSS containing 25 mM HEPES, pH 7.4): 5.958 g HEPES and 0.35 g NaHCOs were accurately weighed and dissolved in 900 mL pure water. 100 mL of 10× HBSS was then added and stirred well. The pH was adjusted to 7.4, and the mixture was filtered. • 2) Preparation of Caco-2 cell culture medium: FBS, penicillin, streptomycin, kanamycin, and NEAA were added to a high glucose DMEM (containing L-glutamine) culture medium to prepare a cell culture medium containing 10% FBS, 0.1 mg/mL streptomycin, 100 units penicillin, 0.6 µg/mL kanamycin, and 1× NEAA. • 3) Cells were cultured with a T-75 flask at 37 °C with 5% CO2 in an incubator. The culture medium was discarded when cell density reached 80-90%. The cells were rinsed with 5 mL PBS. 1.5 mL Trypsin/EDTA was added. The mixture was incubated at 37 °C for 5-10 min in an incubator until the cells shed like quicksand. Finally the Trypsin/EDTA was neutralized with a FBS-containing culture medium. • 4) The cell suspension was centrifuged at 120 × g for 10 min, and the supernatant was discarded. • 5) The cells were resuspended in a cell culture medium. The cell suspension was adjusted to a density of 6.86 × 10^5 cells/mL. • 2. Caco-2 cell inoculation • 1) 50 µL of culture medium was added to the Transwell chamber per well. 25 mL of culture medium was added to the lower chamber, and the chamber was preheated at 37 °C for 1 h with 5% CO2 in an incubator. • 2) 50 µL of the cell suspension was added to the preheated Transwell chamber per well at a final density of 2.4 × 10^5 cells/cm^2 • 3) The cells were cultured for 14-18 days. The culture medium was replaced every other day, and the culture medium was replaced within 48 h after the initial inoculation. The culture medium had to be replaced the day before the experiment. • 3. Evaluation of integrity of monolayer cell membrane • 1) The cells fused and differentiated after 14 days of culture and were ready for a transport experiment. • 2) The resistance of the monolayer membrane was measured using a resistance detector. […] Transport experiment • 1) A 10 mM stock solution of the compound of the present disclosure or the positive control compound was diluted with DMSO to give a 2 mM stock solution. The 2 mM stock solution was then diluted with the transport buffer to give a 10 µM working solution of the compound of the present disclosure or the positive control compound. • 2) The Caco-2 cell plate was taken out from the incubator, washed twice with the pre-heated transport buffer, and incubated at 37 °C in an incubator for 30 min. • 3) To determine the transport rate of the compound from the apical end to the basal end (A → B), 108 µL of the working solution of the compound was added to the Transwell chamber (apical end), while 8 µL of the sample was immediately taken from the apical end to 72 µL of the transport buffer. […]

H358-SOS2 KO cells = assay: H358-SOS2 KO cell proliferation inhibition (CellTiter-Glo, 3D methylcellulose); format: cell-based; details: 192 h, 8 days, CTG
Description: The effect of the compounds of the present invention on the proliferation of H358 cells with knockout of SOS2 (H358-SOS2 KO, Kyinno Biotechnology Co., Ltd.) was assessed by CellTiter-Glo luminescent cell viability assay kit method. The H358-SOS2 KO cell strain was cultured in complete medium at 37 °C with 5% CO2. A sterilized 1% methylcellulose 3D medium was prepared in advance. Cells in the logarithmic growth phase were harvested and counted using a […]. The cell viability was determined by the trypan blue exclusion method, and the cell viability was kept 90% or more. The cell concentration was adjusted. The cells were uniformly mixed and left to stand. After no visible gas exists in the cell suspension, 180 µL of the cell suspension was added into a 96-well plate at 180 µL/well, and the total number of cells was 2000. The cells in the 96-well plate were incubated at 37 °C with 5% CO2. A diluted test compound was added to each well using a multi-channel pipette. […] The cell plate was placed at room temperature for 20 min to stabilize the luminescence signal. The luminescence value was read, and the data were collected. The data were analyzed using the GraphPad Prism 7.0 software. Dose-response curves were fit to the data using nonlinear S-curve regression, and the IC50 value was calculated from the curves.

For `Cc1nc(N[C@H](C)c2cccc(C(F)F)c2F)c2cn(C3(CF)CC3)c(=O)c(N3CCOC[C@@H]3C)c2n1` [Example 40, 4-(((R)-1-(3-(difluoromethyl)-2-fluorophenyl)ethyl)amino)-6-(1-(fluoromethyl)cyclopropyl)-2-methyl-8-((S)-3-methylmorpholine)pyrido[4,3-d]pyrimidine-7(6H)-one], the efflux ratio at 2 h, 10 µM ([1]; Caco-2, Papp (B-A)/Papp (A-B)) was 13.1, the Papp A→B at 2 h, 10 µM [1] was 2.1 ×10⁻⁶ cm/s and the Papp B→A at 2 h, 10 µM [1] was 27.6 ×10⁻⁶ cm/s.
`[2H][C@](C)(Nc1nc(C)nc2c(N3CCOCC3)c(=O)n(C3(CF)CC3)cc12)c1cccc(C(F)F)c1F` [Example 55, (R)-4-((1-(3-(difluoromethyl)-2-fluorophenyl)ethyl-1-d)amino)-6-(1-(fluoromethyl)cyclopropyl)-2-methyl-8-morpholinylpyrido[4,3-d]pyrimidine-7(6H)-one] showed an IC50 (H358-SOS2 KO cells) of 79 nM, an efflux ratio ([1]; Caco-2, Papp (B-A)/Papp (A-B)) of 4.77 and a Papp A→B at 2 h, 10 µM [1] of 5.09 ×10⁻⁶ cm/s. For the same compound, the Papp B→A at 2 h, 10 µM [1] was 24.3 ×10⁻⁶ cm/s.
